We go through 16 compounds from patent US10912840B2, “Conjugates for treating diseases caused by PSMA expressing cells” (priority 2012, dated 2021).

“Also recorded” adds a separate entry of the source. Like-named read-outs stand apart in the source and are kept apart here.

One may read the IC50 as the concentration needed to halve the response being measured.

One data set deals with T1, PSMA (Homo sapiens, UniProt Q04609).
T1 construct: endogenous in cells; host or cells: LNCaP cells
In kind it is binding. The protocol:
PSMA relative affinity assay. LNCaP cells are seeded in 12-well Corning Cell-BIND plates and allowed to form adherent monolayers overnight in RPMI/HIFCS. Spent incubation media is replaced with RPMI supplemented with 10% HIFCS and containing a standard PSMA binding ligand, such as 100 nM of 3H-PMPA or a competing compound, such as EC0652, Re-EC652, or ^99mTc-EC0652, in the absence and presence of increasing concentrations of test compound, such as unlabeled PMPA, or a compound described herein, such as EC1169 or EC1568, a negative control intermediate lacking a PSMA binding ligand which is used as a negative control. Cells are incubated for 1 h at 37° C. and then rinsed three times with 0.5 mL of PBS. Five hundred microliters of 1% sodium dodecylsulfate in PBS are added to each well; after 5 min, cell lysates are collected, transferred to individual tubes or to vials containing 5 mL of scintillation cocktail, and then counted for radioactivity. Cells exposed to only the standard PSMA binding ligand, such as 3H-PMPA, or competing compound, such as ^99mTc-EC0652, in FFRPMI (no competitor) are designated as negative controls, whereas cells exposed to the standard PSMA binding ligand, such as 3H-PMPA, plus 1 mM unlabeled PMPA or competing compound, such as ^99mTc-EC0652 plus Re-EC0652, serve as positive controls. Disintegrations per minute (DPMs) measured in the latter samples (representing nonspecific binding of label) are subtracted from the DPM values from all samples. Relative affinities are defined as the inverse molar ratio of compound required to displace 50% of the standard PSMA binding ligand, such as ^3H-PMPA, or the competing compound, such as ^99mTc-EC0652, bound to PSMA on LNCaP cells, and the relative affinity of the standard PSMA binding ligand, such as PMPA, or the competing compound, such as Re-EC0652, for PSMA is set to 1.

Data set [1] can be described thus: Gross toxicity (body weight change) in LNCaP tumor-bearing mice.
Method: Four to seven week-old male nu/nu mice (Harlan Sprague Dawley. Inc., Indianapolis, Ind.) are maintained on a standard 12 h light-dark cycle and fed ad libitum with rodent diet #2918 (Harlan Teklad, Madison, Wis.) for the duration of the experiment. LNCaP cells are grown in RPMI in 10% HIFCS at 37° C. in a 5% CO2/95% air-humidified atmosphere, harvested and resuspended on ice in matrigel solution (50% RPMI+50% matrigel high concentration. BD#354248) to a final concentration of 1×10^6 cells/50 μL. Cell solution and injection needles (28 gauge) are kept on ice prior to injection and 50 μL of the cell solution injected in the subcutis of the dorsal medial area. Mice are divided into groups of five, seven, or nine, and freshly prepared test compound solutions are injected through the lateral tail vein under sterile conditions in a volume of 200 μL of phosphate-buffered saline (PBS). […] Growth of each s.c. tumor is followed by measuring the tumor three times per week during treatment and twice per week thereafter, until a volume of 1500 mm^3 is reached. Tumors are measured in two perpendicular directions using Vernier calipers, and their volumes are calculated as 0.5×L×W^2, where L=measurement of longest axis in mm and W=measurement of axis perpendicular to L in mm. As a general measure of gross toxicity, changes in body weights are determined on the same schedule as tumor volume measurements. Maximum % weight loss on any given day due to treatment is determined for each mouse. Survival of animals is monitored daily. Animals that are moribund (or unable to reach food or water) are euthanized by CO2 asphyxiation.
The format of data set [2] is in vivo. Conditions: rats, i.v., 0.33 and 0.51 μmol/kg, BIW, 2 weeks.
The next data set has as its system LNCaP cells. Conditions: human.
Data set [3] has as its system PSMA-positive LNCaP human xenografts. Nature of the data set: Activity in vivo against PSMA+ tumor implanted in mice. Conditions: for tumor growth in vivo compared to untreated animals / cures (cured/tested animals; no tumor growth during entire observation period): 2 μmol/kg, LNCaP xenografts; for tumor growth in vivo compared to untreated animals: TIW for 2 weeks, beginning on day 21 post tumor implant; for cures (cured/tested animals; no tumor growth during entire observation period): TIW. The text has this: Survival of animals is monitored daily.

Setting [4] is: PMPA = 1.0 (normalized), in 10% serum/FDRPMI.
Where [5] appears, read: 10 mg/kg, BIW, 2 weeks, MTD, LNCaP-tumor bearing mice.

T1 sequence (Q04609 whole entry): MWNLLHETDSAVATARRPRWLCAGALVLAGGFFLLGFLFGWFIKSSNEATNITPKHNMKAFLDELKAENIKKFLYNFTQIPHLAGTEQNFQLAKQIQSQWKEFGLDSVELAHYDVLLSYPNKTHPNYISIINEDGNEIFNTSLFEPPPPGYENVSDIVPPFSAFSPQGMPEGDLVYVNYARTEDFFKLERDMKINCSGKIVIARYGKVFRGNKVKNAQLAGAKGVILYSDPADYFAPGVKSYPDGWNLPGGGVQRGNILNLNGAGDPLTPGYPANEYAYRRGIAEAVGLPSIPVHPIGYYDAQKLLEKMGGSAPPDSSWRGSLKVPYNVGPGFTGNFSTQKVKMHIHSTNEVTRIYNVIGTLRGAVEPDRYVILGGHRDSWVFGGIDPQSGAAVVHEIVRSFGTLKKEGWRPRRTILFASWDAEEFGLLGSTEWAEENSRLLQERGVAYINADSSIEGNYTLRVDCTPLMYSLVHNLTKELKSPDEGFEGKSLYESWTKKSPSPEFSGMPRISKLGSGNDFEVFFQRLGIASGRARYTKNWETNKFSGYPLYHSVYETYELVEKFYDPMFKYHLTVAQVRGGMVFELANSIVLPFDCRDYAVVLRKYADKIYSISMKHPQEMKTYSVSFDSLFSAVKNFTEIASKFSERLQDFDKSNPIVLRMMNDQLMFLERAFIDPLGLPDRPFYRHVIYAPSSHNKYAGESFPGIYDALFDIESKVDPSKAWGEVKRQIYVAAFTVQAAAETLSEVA
Method for LNCaP cells: LNCaP cells are seeded in 24-well Corning Cell-BIND plates and allowed to form nearly confluent monolayers overnight in RPMI/HIFCS. Thirty minutes prior to the addition of test compound, such as a compound described herein, spent medium is aspirated from all wells and replaced with fresh RPMI. Following one rinse with 1 mL of fresh RPMI/HIFCS, each well receives 1 mL of media containing increasing concentrations of test compound (four wells per sample). Test compound treated cells are pulsed for 2 h at 37° C., rinsed four times with 0.5 mL of media, and then chased in 1 mL of fresh media up to 70 h. Spent media is aspirated from all wells and replaced with fresh media containing 5 μCi/mL ^3H-thymidine. Following a further 4 h 37° C. incubation, cells are washed three times with 0.5 mL of PBS and then treated with 0.5 mL of ice-cold 5% trichloroacetic acid per well. After 15 min, the trichloroacetic acid is aspirated and the cells are solubilized by the addition of 0.5 mL of 0.25 N sodium hydroxide for 15 min. Four hundred and fifty microliters of each solubilized sample is transferred to scintillation vials containing 3 mL of Ecolume scintillation cocktail and then counted in a liquid scintillation counter. Final tabulated results are expressed as the percentage of ^3H-thymidine incorporation relative to untreated controls.

Turning to `O=C(O)CC[C@H](NC(=O)N[C@@H](CCC(=O)O)C(=O)O)C(=O)O` [DUPA, reference compound], the “relative affinity for PSMA” value on PSMA amounted to 0.05 ×.
For the compound `O=C(O)CC[C@H](NC(=O)N[C@@H](CCCCNC(=O)Nc1ccc(CC(=O)N[C@@H](CC(=O)O)C(=O)N[C@@H](CC(=O)O)C(=O)N[C@@H](CS)C(=O)O)cc1)C(=O)O)C(=O)O` [EC1067], the “Relative PSMA Binding Affinity (fold over PMPA = 1.0)” value at PSMA worked out at 30 fold. The “relative affinity for PSMA” value at PSMA (setting [4]) is listed as 30 ×.
On the same counts, the results for `O=C(O)CC[C@H](NC(=O)N[C@@H](CCCCNC(=O)Nc1ccc(CC(=O)O)cc1)C(=O)O)C(=O)O` [EC1080] are 6 fold and 6 ×.
Take `O=C(O)CC[C@H](NC(=O)N[C@@H](CCCCNC(=O)NCc1ccc(CC(=O)N[C@@H](CC(=O)O)C(=O)N[C@@H](CC(=O)O)C(=O)N[C@@H](CS)C(=O)O)cc1)C(=O)O)C(=O)O` [EC1167]: the “Relative PSMA Binding Affinity (fold over PMPA = 1.0)” value at PSMA was 11 fold.
On to `O=C(O)CC[C@H](NC(=O)N[C@@H](CCCCNC(=O)NCc1ccc(CC(=O)N[C@@H](CC(=O)O)C(=O)N[C@@H](CC(=O)O)C(=O)NCC(=O)O)cc1)C(=O)O)C(=O)O` [EC1168], for which the “Relative PSMA Binding Affinity (fold over PMPA = 1.0)” value on PSMA came to 17 fold. Moreover, the “relative affinity for PSMA” value at PSMA (setting [4]) is 17 ×.
For `CCCC(=O)OCN(C(=O)[C@@H](NC(=O)[C@H]1CCCCN1C)C(C)CC)[C@H](C[C@@H](OC(C)=O)c1nc(C(=O)N[C@@H](Cc2ccc(O)cc2)C[C@H](C)C(=O)NNC(=O)OCCSSC[C@H](NC(=O)[C@H](CC(=O)O)NC(=O)[C@H](CC(=O)O)NC(=O)Cc2ccc(CNC(=O)NCCCC[C@H](NC(=O)N[C@@H](CCC(=O)O)C(=O)O)C(=O)O)cc2)C(=O)O)cs1)C(C)C` (stereo partly shown) [EC1169], the “gross animal toxicity (weight loss, major organ tissue degeneration)” value in data set [1] (2 μmol/kg, TIW, 2 weeks) is given as “absence of weight loss or major organ tissue degeneration”; in data set [1] (2 μmol/kg, TIW, 2 weeks, listed as EC169), “do not exhibit gross animal toxicity”. Moreover, the “gross toxicity compared to docetaxel” value in data set [1] (2 μmol/kg, TIW, 2 weeks vs docetaxel 10 mg/kg, BIW, MTD) is recorded as “substantially less gross animal toxicity compared to docetaxel; also recorded: less toxic than docetaxel”. The “hematological toxicity in red blood cells and white blood cells” value in data set [2] is listed as “significantly lower than untreated controls”. Further, the IC50 in the data set on LNCaP cells was 0.013 µM.
With `CCCC(=O)OCN(C(=O)[C@@H](NC(=O)[C@H]1CCCCN1C)C(C)CC)[C@H](C[C@@H](OC(C)=O)c1nc(C(=O)N[C@@H](Cc2ccc(O)cc2)C[C@H](C)C(=O)NNC(=O)OCCSSC[C@H](NC(=O)[C@@H](CC(=O)O)NC(=O)[C@@H](CC(=O)O)NC(=O)Cc2ccc(CNC(=O)NCCCC[C@H](NC(=O)N[C@@H](CCC(=O)O)C(=O)O)C(=O)O)cc2)C(=O)O)cs1)C(C)C` (stereo partly shown) [EC1308], the “Relative PSMA Binding Affinity (fold over PMPA = 1.0)” value on PSMA is reported as 20 fold.
Turning to `CCCC(=O)OCN(C(=O)[C@@H](NC(=O)[C@H]1CCCCN1C)C(C)CC)[C@H](C[C@@H](OC(C)=O)c1nc(C(=O)N[C@@H](Cc2ccc(O)cc2)C[C@H](C)C(=O)NNC(=O)OCCSSC[C@H](NC(=O)[C@H](CC(=O)O)NC(=O)[C@H](CCCNC(=N)N)NC(=O)Cc2ccc(CNC(=O)NCCCC[C@H](NC(=O)N[C@@H](CCC(=O)O)C(=O)O)C(=O)O)cc2)C(=O)O)cs1)C(C)C` (stereo partly shown) [EC1310], the “Relative PSMA Binding Affinity (fold over PMPA = 1.0)” value on PSMA was found to be 10 fold.
The same measure, in the same setting: next, `CCCC(=O)OCN(C(=O)[C@@H](NC(=O)[C@H]1CCCCN1C)C(C)CC)[C@H](C[C@@H](OC(C)=O)c1nc(C(=O)N[C@@H](Cc2ccc(O)cc2)C[C@H](C)C(=O)NNC(=O)OCCSSC[C@H](NC(=O)[C@H](Cc2ccccc2)NC(=O)[C@H](CC(=O)O)NC(=O)NCCCC[C@H](NC(C)=O)C(=O)O)C(=O)O)cs1)C(C)C` (stereo partly shown) [EC1568, reference compound]: 0 fold.
The compound `CCCCOCN(C(=O)[C@@H](NC(=O)[C@H]1CCCCN1C)[C@@H](C)CC)[C@H](C[C@@H](OC(C)=O)c1nc(C(=O)N[C@@H](Cc2ccc(O)cc2)C[C@H](C)C(=O)NNC(=O)OCCSSC[C@H](NC(=O)[C@H](CC(=O)O)NC(=O)[C@H](CC(=O)O)NC(=O)Cc2ccc(CNC(=O)NCCCC[C@H](NC(=O)N[C@@H](CCC(=O)O)C(=O)O)C(=O)O)cc2)C(=O)O)cs1)C(C)C` [EC1677] yielded an IC50 of 0.0209 µM. The “gross animal toxicity (weight loss, major organ tissue degeneration)” value in data set [1] (2 μmol/kg, TIW, 2 weeks) is “do not exhibit gross animal toxicity”. Further, the “tumor growth in vivo compared to untreated animals” value in data set [3] is “efficacious in decreasing tumor growth”. In addition, the “cures (cured/tested animals; no tumor growth during entire observation period)” value in data set [3] (2 weeks) is given as 4/7.
On the same counts, the results for `CCCOCN(C(=O)[C@@H](NC(=O)[C@H]1CCCCN1C)[C@@H](C)CC)[C@H](C[C@@H](OC(C)=O)c1nc(C(=O)N[C@@H](Cc2ccc(O)cc2)C[C@H](C)C(=O)NNC(=O)OCCSSC[C@H](NC(=O)[C@H](CC(=O)O)NC(=O)[C@H](CC(=O)O)NC(=O)Cc2ccc(CNC(=O)NCCCC[C@H](NC(=O)N[C@@H](CCC(=O)O)C(=O)O)C(=O)O)cc2)C(=O)O)cs1)C(C)C` [EC1718] are 0.0179 µM, “do not exhibit gross animal toxicity”, “efficacious in decreasing tumor growth” and 1/7.
Take `CCCCCOCN(C(=O)[C@@H](NC(=O)[C@H]1CCCCN1C)[C@@H](C)CC)[C@H](C[C@@H](OC(C)=O)c1nc(C(=O)N[C@@H](Cc2ccc(O)cc2)C[C@H](C)C(=O)NNC(=O)OCCSSC[C@H](NC(=O)[C@H](CC(=O)O)NC(=O)[C@H](CC(=O)O)NC(=O)Cc2ccc(CNC(=O)NCCCC[C@H](NC(=O)N[C@@H](CCC(=O)O)C(=O)O)C(=O)O)cc2)C(=O)O)cs1)C(C)C` [EC1719]: half-maximal inhibition (IC50) was put at 0.0375 µM. In addition, in data set [1] (2 μmol/kg, TIW, 2 weeks), the “gross animal toxicity (weight loss, major organ tissue degeneration)” value was “do not exhibit gross animal toxicity”. In addition, the “tumor growth in vivo compared to untreated animals” value in data set [3] is given as “efficacious in decreasing tumor growth”. In addition, the “cures (cured/tested animals; no tumor growth during entire observation period)” value in data set [3] (2 weeks) is reported as 2/7.
For `CCCCCCOCN(C(=O)[C@@H](NC(=O)[C@H]1CCCCN1C)C(C)CC)[C@H](C[C@@H](OC(C)=O)c1nc(C(=O)N[C@@H](Cc2ccc(O)cc2)C[C@H](C)C(=O)NNC(=O)OCCSSC[C@H](NC(=O)[C@H](CC(=O)O)NC(=O)[C@H](CC(=O)O)NC(=O)Cc2ccc(CNC(=O)NCCCC[C@H](NC(=O)N[C@@H](CCC(=O)O)C(=O)O)C(=O)O)cc2)C(=O)O)cs1)C(C)C` (stereo partly shown) [EC1720], the “gross animal toxicity (weight loss, major organ tissue degeneration)” value in data set [1] (2 μmol/kg, TIW, 2 weeks) is given as “do not exhibit gross animal toxicity”. This compound also showed a concentration for half-maximal inhibition (IC50) in the data set with LNCaP cells of 0.0542 µM.
As to `CCCCCCCOCN(C(=O)[C@@H](NC(=O)[C@H]1CCCCN1C)C(C)CC)[C@H](C[C@@H](OC(C)=O)c1nc(C(=O)N[C@@H](Cc2ccc(O)cc2)C[C@H](C)C(=O)NNC(=O)OCCSSC[C@H](NC(=O)[C@H](CC(=O)O)NC(=O)[C@H](CC(=O)O)NC(=O)Cc2ccc(CNC(=O)NCCCC[C@H](NC(=O)N[C@@H](CCC(=O)O)C(=O)O)C(=O)O)cc2)C(=O)O)cs1)C(C)C` (stereo partly shown) [EC1721], the “gross animal toxicity (weight loss, major organ tissue degeneration)” value in data set [1] (2 μmol/kg, TIW, 2 weeks) was “do not exhibit gross animal toxicity”. The concentration for half-maximal inhibition (IC50) with LNCaP cells came out at 0.0656 µM.
`O=C(O)CC[C@H](CP(=O)(O)O)C(=O)O` [PMPA, reference compound]: the “relative affinity for PSMA” value on PSMA is listed as 1.0 ×.
Take `CC(=O)O[C@@]12CO[C@@H]1C[C@H](O)[C@@]1(C)C(=O)[C@H](O)C3=C(C)[C@@H](OC(=O)[C@H](O)[C@@H](NC(=O)OC(C)(C)C)c4ccccc4)C[C@@](O)([C@@H](OC(=O)c4ccccc4)[C@H]21)C3(C)C` [docetaxel, reference compound]: in data set [1] (10 mg/kg, BIW, 2 weeks, MTD), the gross toxicity entry is “high gross toxicity” and the weight loss was determined as 18%. Besides, in data set [3] (setting [5]), the anti-tumor activity result is on record as “only modest anti-tumor activity” and the “cures (cured/tested animals)” value is 1/4.
